Source: patent US10375956B2, “Herbicidally active 2-(substituted-phenyl)-cyclopentane-1,3-dione compounds and derivatives thereof” (Syngenta Limited, priority 2013, dated 2019)

Assays:
Type in all cases: in vivo
[1] = test system: Triticum aestivum (TRZAW, winter wheat); assay: Test 1 glasshouse assay, post-emergence herbicidal activity; conditions: 312 h, post-emergence (Example 1B Table 2), after 13 days, crop plant, read-out: Percentage phytotoxicity TRZAW
Procedure: (§1) Seeds of a variety of test species are sown in standard soil in pots. After cultivation for one day (pre-emergence) or after 8 days cultivation (post-emergence) under controlled conditions in a glasshouse (at 24/16° C., day/night; 14 hours light; 65% humidity), the plants are sprayed with an aqueous spray solution derived from the formulation of the “technical” (i.e. unformulated) active ingredient in acetone/water (50:50) solution containing 0.5% Tween 20 (polyoxyethylene sorbitan monolaurate, CAS Registry Number 9005-64-5). The test plants are then grown on under controlled conditions in a glasshouse (at 24/16° C., day/night; 14 hours light; 65% humidity) and watered twice daily. After 13 days for pre- or post-emergence, the test is evaluated visually, and an assessed percentage phytotoxicity score is given for each herbicidal application on each plant species (where 100%=total damage to plant; 0%=no damage to plant).
(§2) Lolium perenne (LOLPE), Alopecurus myosuroides (ALOMY), Echinochloa crus-galli (ECHCG), and Avena fatua (AVEFA); these are all grassy monocotyledonous weeds. Cool climate crop plant: Triticum aestivum (TRZAW, winter wheat).

Lolium perenne (LOLPE) = assay: as above; conditions: 312 h, post-emergence (Example 1B Table 2), after 13 days, read-out: Percentage phytotoxicity LOLPE
Procedure: as §1, §2

Avena fatua (AVEFA) = assay: as above; conditions: 312 h, post-emergence (Example 1B Table 2), after 13 days, read-out: Percentage phytotoxicity AVEFA
Procedure: as §1, §2

[2] = test system: Zea mays (ZEAMX, corn/maize); assay: as above; conditions: 312 h, post-emergence (Example 1B Table 1), after 13 days, read-out: Percentage phytotoxicity ZEAMX
Procedure: as §1
(§3) Test plants include the following: Abutilon theophrasti (ABUTH) and Amaranthus retroflexus (AMARE); these are all dicotyledonous (broadleaved) weeds. Setaria faberi (SETFA), Alopecurus myosuroides (ALOMY), and Echinochloa crus-galli (ECHCG); these are all grassy monocotyledonous weeds. Also: Zea mays (ZEAMX, corn/maize), which can be a grassy weed (“volunteer” corn) in some circumstances.

Setaria faberi (SETFA) [3] = assay: as above; conditions: 312 h, post-emergence (Example 1B Table 1), after 13 days, read-out: Percentage phytotoxicity SETFA
Procedure: as §1, §3

[4] = test system: Amaranthus retroflexus (AMARE); assay: as above; conditions: 312 h, post-emergence (Example 1B Table 1), after 13 days, read-out: Percentage phytotoxicity AMARE
Procedure: as §1, §3

[5] = test system: Abutilon theophrasti (ABUTH); assay: as above; conditions: 312 h, post-emergence (Example 1B Table 1), after 13 days, read-out: Percentage phytotoxicity ABUTH
Procedure: as §1, §3

[6] = test system: Echinochloa crus-galli (ECHCG); assay: as above; conditions: 312 h, after 13 days, read-out: Percentage phytotoxicity ECHCG
Procedure: as §1, §3, §2

[7] = test system: Alopecurus myosuroides (ALOMY); assay: as above; conditions: 312 h, after 13 days, read-out: Percentage phytotoxicity ALOMY
Procedure: as §1, §3, §2

[8] = test system: Zea mays (ZEAMX, corn/maize); assay: Test 1 glasshouse assay, pre-emergence herbicidal activity; conditions: 312 h, visual evaluation after 13 days, read-out: Percentage phytotoxicity ZEAMX
Procedure: as §1
(§4) Test plants include the following: Abutilon theophrasti (ABUTH), Amaranthus retroflexus (AMARE): these are dicotyledonous (broadleaved) weeds. Setaria faberi (SETFA), Alopecurus myosuroides (ALOMY), Echinochloa crus-galli (ECHCG): these are grassy monocotyledonous weeds. Also: Zea mays (ZEAMX, corn/maize), which can be a grassy weed (“volunteer” corn) in some circumstances.

Setaria faberi (SETFA) [9] = assay: as above; conditions: 312 h, visual evaluation after 13 days, read-out: Percentage phytotoxicity SETFA
Procedure: as §1, §4

[10] = test system: Echinochloa crus-galli (ECHCG); assay: as above; conditions: 312 h, visual evaluation after 13 days, read-out: Percentage phytotoxicity ECHCG
Procedure: as §1, §4

[11] = test system: Amaranthus retroflexus (AMARE); assay: as above; conditions: 312 h, visual evaluation after 13 days, read-out: Percentage phytotoxicity AMARE
Procedure: as §1, §4

[12] = test system: Abutilon theophrasti (ABUTH); assay: as above; conditions: 312 h, visual evaluation after 13 days, read-out: Percentage phytotoxicity ABUTH
Procedure: as §1, §4

[13] = test system: Alopecurus myosuroides (ALOMY); assay: as above; conditions: 312 h, visual evaluation after 13 days, read-out: Percentage phytotoxicity ALOMY
Procedure: as §1, §4

[14] = post-emergence (Example 1B Table 1), 31.25 g/ha
[15] = post-emergence (Example 1B Table 1)
[16] = post-emergence (Example 1B Table 2), 62.5 g/ha
[17] = post-emergence (Example 1B Table 2)

SMILES | pest or weed control at 250 g/ha [2] | pest or weed control at 250 g/ha (Setaria faberi (SETFA) [3]) | pest or weed control at 250 g/ha [4] | pest or weed control at 250 g/ha [5] | pest or weed control at 250 g/ha [6, 15] | pest or weed control at 250 g/ha [7, 15] | pest or weed control at 250 g/ha [8] | pest or weed control at 250 g/ha (Setaria faberi (SETFA) [9]) | pest or weed control at 250 g/ha [10] | pest or weed control at 250 g/ha [11] | pest or weed control at 250 g/ha [12] | pest or weed control at 250 g/ha [13] | other results
C#CCC1CC(=O)C(c2c(C)cc(-c3ncc(Cl)cn3)cc2C)C1=O (stereo not shown) [Compound A5, 2-[4-(5-chloropyrimidin-2-yl)-2,6-dimethylphenyl]-4-prop-2-ynylcyclopentane-1,3-dione] | 100% | 100% | 90% | 90% | 100% | 100% | 100% | 100% | 100% | 100% | 70% | 100% | plant injury at 62.5 g/ha ([1]; 62.5 g/ha): 80%; plant injury at 250 g/ha ([1]; 250 g/ha): 90%; pest or weed control at 62.5 g/ha (Lolium perenne (LOLPE); 62.5 g/ha): 90%; pest or weed control at 250 g/ha (Lolium perenne (LOLPE); 250 g/ha): 100%; pest or weed control at 62.5 g/ha (Avena fatua (AVEFA); 62.5 g/ha): 100%; pest or weed control at 250 g/ha (Avena fatua (AVEFA); 250 g/ha): 100%; pest or weed control at 31.25 g/ha ([2]; 31.25 g/ha): 100%; pest or weed control at 31.25 g/ha (Setaria faberi (SETFA) [3]; 31.25 g/ha): 100%; pest or weed control at 31.25 g/ha ([4]; 31.25 g/ha): 30%; pest or weed control at 31.25 g/ha ([5]; 31.25 g/ha): 30%; pest or weed control at 31.25 g/ha [6, 14]: 100%; pest or weed control at 62.5 g/ha [6, 16]: 100%; pest or weed control at 250 g/ha [6, 17]: 100%; pest or weed control at 31.25 g/ha [7, 14]: 80%; pest or weed control at 62.5 g/ha [7, 16]: 90%; pest or weed control at 250 g/ha [7, 17]: 100%
C#CCC1CC(=O)C(c2cc(-c3ccc(Cl)cn3)ccc2C)C1=O (stereo not shown) [Compound A17] | 60% | 80% | 50% | 10% | 80% | 70% | 60% | 70% | 70% | 10% | 10% | 70% | 
